Data reported in article PMC9716094, “Synthesis of novel amidines via one-pot three component reactions: Selective topoisomerase I inhibitors with antiproliferative properties” (Frontiers in Chemistry, 2022).

What was measured:
[1] = tested on: four cancer cell lines (A-549, MCF-7, Panc-1, HT-29); assay: Antiproliferative assay, average over the four cancer cell lines (GI50); conditions: for IC50: read-out: Antiproliferative activity IC50, Average (mean GI50); for Fold less potent than the reference doxorubicin (GI50): mean GI50 compared with doxorubicin
Experimental: (§4) The IC50 of each compound was calculated using doxorubicin as the reference.
(§5) To explore the antiproliferative potential of compounds MTT assay was performed according to previously reported procedure using different cell lines to explore the antiproliferative potential of compounds propidium iodide fluorescence assay was performed using different cell lines. To calculate the total nuclear DNA, a fluorescent dye (propidium iodide, PI) is used which can attach to the DNA, thus offering a quick and precise technique. PI cannot pass through the cell membrane and its signal intensity can be considered as directly proportional to quantity of cellular DNA. Cells whose cell membranes are damaged or have changed permeability are counted as dead ones. The assay was performed by seeding the cells of different cell lines at a density of 3000-7500 cells/well (in 200µl medium) in culture plates followed by incubation for 24h at 37 °C in humidified 5% CO2/95% air atmospheric conditions. The medium was removed; the compounds were added to the plates at 10 µM concentrations (in 0.1% DMSO) in triplicates, followed by incubation for 48 h. DMSO (0.1%) was used as control. After incubation, medium was removed followed by the addition of PI (25 µl, 50µg/mL in water/medium) to each well of the plates. At -80 °C, the plates were allowed to freeze for 24 h, followed by thawing at 25 °C. A fluorometer (Polar-Star BMG Tech) was used to record the readings at excitation and emission wavelengths of 530 and 620 nm for each well. The percentage cytotoxicity of compounds was calculated using the following formula:

[2] = tested on: HT-29 (colon cancer cell line); assay: Antiproliferative assay, HT-29; conditions: Homo sapiens, HT-29, read-out: Antiproliferative activity IC50 ± SEM, HT-29
Experimental: as §4, §5

[3] = tested on: A-549 (epithelial cancer cell line); assay: Antiproliferative assay, A-549; format: cell-based; conditions: Homo sapiens, A549; read-out: Antiproliferative activity IC50 ± SEM, A-549
Description: (§1) See Supplementary Appendix S1A.
(§2) DMSO (0.1%) was used as control.

[4] = Cell viability assay (MTT) on normal cell line; format: cell-based; conditions: human, MCF-10A mammary epithelial cells, 50 µM of compound;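 note: values are percent cell viability not percent inhibition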
Experimental: To study the effect of 4a-l and 5a-c on normal cell lines, a cell viability assay was done using the MCF-10A (human mammary gland epithelial) cell line ([Abdelbaset et al., 2019]; [Al-Wahaibi et al., 2020]). This study uses a concentration of 50 µM of the investigated compound for 4 days, after which cell viability is evaluated.
To study the effect of 4a-l and 5a-c on normal cell lines, a cell viability assay was done using the MCF-10A (human mammary gland epithelial) cell line ([Abdelbaset et al., 2019]; [Al-Wahaibi et al., 2020]). See Supplementary Appendix S1A.
MTT assay was carried out to study the effect of compounds on mammary epithelial cells (MCF-10A). The medium in which cells were propagated contained Dulbecco's modified Eagle's medium (DMEM)/ Ham's F-12 medium (1:1) supplemented with epidermal growth factor (20 ng/mL), hydrocortisone (500 ng/mL), insulin (10 μg/mL), 2 mM glutamine and 10% fetal calf serum. After every 2-3 days, the cells were passaged using trypsin ethylenediamine tetra acetic acid (EDTA). The cells were seeded at a density of 10^4 cells mL^-1 in flat-bottomed culture plates containing 96 wells each. After 24 h, medium was removed from the plates and the compounds in (in 0.1% DMSO) were added (in 200 μL medium to yield a final concentration of 0.1% v/v) to the wells of plates. A single compound was designated with four wells followed by incubation of plates for 96h at 37°C. After incubation, medium was removed completely from the plates followed by addition of MTT (0.4 mg/mL in medium) to each well and subsequent incubation of plates for 3h. MTT (along with the medium) was removed and DMSO (150μL) was added to each well of the culture plates, followed by vortexing and subsequent measurement of absorbance (at 540 nm) using microplate reader. The data are shown as percentage inhibition of proliferation in comparison with controls containing 0.1% DMSO.

[5] = tested on: MCF-7 (breast cancer cell line); assay: Antiproliferative assay, MCF-7; format: cell-based; conditions: Homo sapiens, MCF7; read-out: Antiproliferative activity IC50 ± SEM, MCF-7
Description: as §1, §2

[6] = tested on: Panc-1 (pancreas cancer cell line); assay: Antiproliferative assay, Panc-1; format: cell-based; conditions: Homo sapiens, read-out: Antiproliferative activity IC50 ± SEM, Panc-1
Description: as §1, §2

topo IIα = molecular target: T1, topo IIα (Homo sapiens, UniProt P11388); assay: Topo IIα inhibitory assay (pBR322 relaxation); format: biochemical
T1 construct: purchased USB Corp., USA
Experimental: (§3) All the tested compounds were dissolved in DMSO and the DNA topoisomerase I and II inhibitory activity of each compound was measured as follows according to previously reported methods. Mixture comprising of 100 ng supercoiled pBR322 plasmid DNA (Thermo Scientific, USA) and 0.2 ~ 1 unit of recombinant human DNA topo I (Topo GEN INC., USA) or topo IIα (USB Corp., USA) was incubated with or without the prepared compounds in the assay buffer (For topo I, 10 mM Tris-HCl (pH 7.9), 150 mM NaCl and 0.1% BSA, 0.1 mM spermidine and 5% glycerol; for topo II, 10 mM Tris-HCl (pH 7.9), 50 mM NaCl, 50 mM KCl, 5 mM MgCl2, 1 mM EDTA, 1 mM ATP and […] BSA) for 30 min at 37 ◦C. The reaction with final volume of 10 μL was stopped by adding the topo stop buffer (For topo I, 10% SDS solution containing 0.2% bromophenol blue, 0.2% xylene cyanol and 30% glycerol; for topo II, 7 mM EDTA). The reaction products were electrophoresed on 0.8% agarose gel at 50 V for 1 h with TAE electrophoresis buffer. The gels were stained in an EtBr solution (0.5 mg/mL) and visualized by transillumination with UV light and were quantitated using Alpha Tech ImagerTM (Alpha Innotech Corp., USA).

[7] = molecular target: T2, recombinant human DNA topo I (Homo sapiens, UniProt P11387); assay: Topo I inhibitory assay (pBR322 relaxation); format: biochemical
T2 construct: purchased Topo GEN INC., USA
T2 sequence (P11387 1-765): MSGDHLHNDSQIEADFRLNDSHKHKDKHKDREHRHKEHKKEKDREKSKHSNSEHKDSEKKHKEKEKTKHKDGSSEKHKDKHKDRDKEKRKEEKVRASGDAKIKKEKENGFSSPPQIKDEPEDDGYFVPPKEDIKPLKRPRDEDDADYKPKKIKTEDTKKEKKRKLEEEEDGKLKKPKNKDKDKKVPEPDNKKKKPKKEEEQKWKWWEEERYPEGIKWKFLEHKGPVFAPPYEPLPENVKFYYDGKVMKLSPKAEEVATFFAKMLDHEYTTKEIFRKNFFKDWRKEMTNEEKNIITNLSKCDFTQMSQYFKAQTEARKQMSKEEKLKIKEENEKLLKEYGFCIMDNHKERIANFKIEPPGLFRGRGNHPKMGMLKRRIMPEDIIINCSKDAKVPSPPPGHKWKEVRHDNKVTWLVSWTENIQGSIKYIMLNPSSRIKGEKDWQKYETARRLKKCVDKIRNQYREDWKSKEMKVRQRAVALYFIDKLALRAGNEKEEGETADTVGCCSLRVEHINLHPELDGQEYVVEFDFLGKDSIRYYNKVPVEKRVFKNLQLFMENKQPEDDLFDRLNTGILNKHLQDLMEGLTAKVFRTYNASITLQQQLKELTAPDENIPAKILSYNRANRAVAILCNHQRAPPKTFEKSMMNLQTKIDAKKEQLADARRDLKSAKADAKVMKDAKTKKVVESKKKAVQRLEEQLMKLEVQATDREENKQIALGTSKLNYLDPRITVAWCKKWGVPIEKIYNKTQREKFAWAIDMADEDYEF
Experimental: as §3

T1 sequence (P11388 whole entry): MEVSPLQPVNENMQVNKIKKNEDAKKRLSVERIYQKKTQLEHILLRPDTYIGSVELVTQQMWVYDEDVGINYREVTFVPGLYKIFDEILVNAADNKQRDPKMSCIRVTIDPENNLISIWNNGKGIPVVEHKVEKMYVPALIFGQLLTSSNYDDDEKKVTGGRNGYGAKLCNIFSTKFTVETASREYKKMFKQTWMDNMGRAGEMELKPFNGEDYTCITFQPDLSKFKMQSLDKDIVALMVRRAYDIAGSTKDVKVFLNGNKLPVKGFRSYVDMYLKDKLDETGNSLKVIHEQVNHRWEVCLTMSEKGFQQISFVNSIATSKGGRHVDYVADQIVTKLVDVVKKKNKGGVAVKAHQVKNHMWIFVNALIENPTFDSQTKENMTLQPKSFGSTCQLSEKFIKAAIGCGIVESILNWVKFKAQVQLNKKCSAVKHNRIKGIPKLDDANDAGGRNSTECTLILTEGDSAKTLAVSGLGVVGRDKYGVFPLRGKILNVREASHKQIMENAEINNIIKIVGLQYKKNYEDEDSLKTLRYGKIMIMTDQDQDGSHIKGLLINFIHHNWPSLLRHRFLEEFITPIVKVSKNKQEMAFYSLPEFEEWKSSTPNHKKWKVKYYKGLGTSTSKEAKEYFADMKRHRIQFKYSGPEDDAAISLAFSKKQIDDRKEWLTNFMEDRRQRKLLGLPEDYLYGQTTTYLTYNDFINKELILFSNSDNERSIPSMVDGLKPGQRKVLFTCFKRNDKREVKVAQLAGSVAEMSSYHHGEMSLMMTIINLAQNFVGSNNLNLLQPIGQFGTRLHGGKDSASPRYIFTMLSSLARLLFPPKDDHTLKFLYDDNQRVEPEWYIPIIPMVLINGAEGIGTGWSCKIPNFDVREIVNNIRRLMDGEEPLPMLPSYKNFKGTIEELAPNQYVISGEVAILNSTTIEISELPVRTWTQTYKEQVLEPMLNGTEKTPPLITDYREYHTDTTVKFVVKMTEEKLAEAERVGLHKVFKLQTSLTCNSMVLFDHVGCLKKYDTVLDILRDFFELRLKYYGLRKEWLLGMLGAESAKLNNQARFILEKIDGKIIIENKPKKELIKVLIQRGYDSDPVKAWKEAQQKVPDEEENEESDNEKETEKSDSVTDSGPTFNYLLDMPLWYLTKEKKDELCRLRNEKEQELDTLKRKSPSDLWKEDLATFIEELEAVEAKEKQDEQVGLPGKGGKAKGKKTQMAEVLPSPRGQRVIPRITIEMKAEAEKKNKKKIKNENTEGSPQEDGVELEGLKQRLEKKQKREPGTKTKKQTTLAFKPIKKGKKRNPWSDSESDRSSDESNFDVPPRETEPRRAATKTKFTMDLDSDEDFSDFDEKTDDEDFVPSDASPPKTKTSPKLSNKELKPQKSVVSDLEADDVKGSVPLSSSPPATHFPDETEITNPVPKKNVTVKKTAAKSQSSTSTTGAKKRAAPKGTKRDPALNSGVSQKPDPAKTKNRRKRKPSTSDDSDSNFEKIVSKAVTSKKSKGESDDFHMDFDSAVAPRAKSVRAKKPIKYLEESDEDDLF

SMILES: Cc1cccc2c(/N=C(\C3CCCC3)N3CCOCC3)cc(=O)[nH]c12 [Compound 4k, (E) 4-((Cyclopentyl(morpholino)methylene)amino)-8-methylquinolin-2(1H)-one]
- IC50 [1]: 4.2 µM
- IC50 [2]: 4.1 ± 0.4 µM
- IC50 [3]: 4.6 ± 0.4 µM
- melting point: 220 °C
- viability at 4 days, 50 µM [4]: 91%
- IC50 [5]: 4.05 ± 0.4 µM
- IC50 [6]: 4.2 ± 0.4 µM

SMILES: Cc1cccc2c(/N=C(\C3CCCC3)N3CCCCC3)cc(=O)[nH]c12 [Compound 4e, (E) 4-((Cyclopentyl(piperidin-1-yl)methylene)amino)-8-methylquinolin-2(1H)-one]
- IC50 [1]: 1.2 µM
- IC50 [2]: 1.2 ± 0.1 µM
- IC50 [3]: 1.3 ± 0.1 µM
- melting point: 184 °C
- viability at 4 days, 50 µM [4]: 90%
- inhibition at 20 µM (topo IIα): 25.6%
- inhibition at 100 µM (topo IIα): 60.4%
- IC50 [5]: 1.1 ± 0.1 µM
- inhibition at 20 µM [7]: 39.1%
- inhibition at 100 µM [7]: 81.4%
- IC50 [6]: 1.2 ± 0.1 µM

SMILES: Cn1c(=O)cc(/N=C(\C2CCCC2)N2CCOCC2)c2ccccc21 [Compound 4l, (E) 4-((Cyclopentyl(morpholino)methylene)amino)-1-methylquinolin-2(1H)-one]
- Fold less potent than the reference doxorubicin (GI50) [1]: at least 6 fold
- IC50 [1]: 7.3 µM
- IC50 [2]: 7.2 ± 0.7 µM
- IC50 [3]: 7.6 ± 0.7 µM
- viability at 4 days, 50 µM [4]: 89%
- IC50 [5]: 7.1 ± 0.7 µM
- IC50 [6]: 7.4 ± 0.7 µM

SMILES: O=c1cc(/N=C(\C2CCCC2)N2CCN(/C(=N/c3cc(=O)[nH]c4ccccc34)C3CCCC3)CC2)c2ccccc2[nH]1 [Compound 5a, 4,4'-((1E,1′E)-(piperazine-1,4-diylbis(cyclopentylmethanylylidene))bis(azanylylid-ene))bis(quinolin-2(1H)-one)]
- IC50 [1]: 5 µM
- IC50 [2]: 5.1 ± 0.3 µM
- IC50 [3]: 5.15 ± 0.3 µM
- melting point: 360 °C
- viability at 4 days, 50 µM [4]: 91%
- IC50 [5]: 4.7 ± 0.4 µM
- IC50 [6]: 4.9 ± 0.3 µM

SMILES: O=c1cc(/N=C(\C2CCCC2)N2CCOCC2)c2cc(Cl)ccc2[nH]1 [Compound 4j, (E) 4-((Cyclopentyl(morpholino)methylene)amino)-6-chloroquinolin-2(1H)-one]
- IC50 [1]: 3.3 µM
- IC50 [2]: 3.5 ± 0.3 µM
- IC50 [3]: 3.7 ± 0.3 µM
- melting point: 247 °C
- viability at 4 days, 50 µM [4]: 89%
- IC50 [5]: 2.9 ± 0.3 µM
- IC50 [6]: 3.1 ± 0.3 µM

SMILES: CC[C@@]1(O)C(=O)OCc2c1cc1n(c2=O)Cc2cc3ccccc3nc2-1 [Camptothecin, reference compound]
- inhibition at 20 µM [7]: 40%
- inhibition at 100 µM [7]: 82.6%

SMILES: Cn1c(=O)cc(/N=C(\C2CCCC2)N2CCCCC2)c2ccccc21 [Compound 4f, (E) 4-((Cyclopentyl(piperidin-1-yl)methylene)amino)-1-methylquinolin-2(1H)-one]
- IC50 [1]: 7.8 µM
- IC50 [2]: 7.7 ± 0.8 µM
- IC50 [3]: 8 ± 0.8 µM
- melting point: 142 °C
- viability at 4 days, 50 µM [4]: 87%
- IC50 [5]: 7.5 ± 0.8 µM
- IC50 [6]: 7.9 ± 0.8 µM

SMILES: O=c1cc(/N=C(\C2CCCC2)N2CCCCC2)c2ccccc2[nH]1 [Compound 4a, (E) 4-((Cyclopentyl(piperidin-1-yl)methylene)amino)quinolin-2(1H)-one]
- IC50 [1]: 5.5 µM
- IC50 [2]: 5.5 ± 0.5 µM
- IC50 [3]: 5.9 ± 0.5 µM
- melting point: 210 °C
- viability at 4 days, 50 µM [4]: 85%
- IC50 [5]: 5.1 ± 0.5 µM
- IC50 [6]: 5.4 ± 0.5 µM

SMILES: Cc1ccc2[nH]c(=O)cc(/N=C(\C3CCCC3)N3CCN(/C(=N/c4cc(=O)[nH]c5ccc(C)cc45)C4CCCC4)CC3)c2c1 [Compound 5b, 4,4'-((1E,1′E)-(piperazine-1,4-diylbis(cyclopentylmethanylylidene))bis(azanylylid-ene))bis(6-methylquinolin-2(1H)-one)]
- IC50 [1]: 3.9 µM
- IC50 [2]: 3.8 ± 0.3 µM
- IC50 [3]: 4.1 ± 0.3 µM
- melting point: 355 °C
- viability at 4 days, 50 µM [4]: 91%
- IC50 [5]: 3.7 ± 0.3 µM
- IC50 [6]: 3.9 ± 0.3 µM

SMILES: COc1cc([C@@H]2c3cc4c(cc3[C@@H](O[C@@H]3O[C@@H]5CO[C@@H](C)O[C@H]5[C@H](O)[C@H]3O)[C@H]3COC(=O)[C@H]23)OCO4)cc(OC)c1O [Etoposide, reference compound]
- inhibition at 20 µM (topo IIα): 66%
- inhibition at 100 µM (topo IIα): 83.7%

SMILES: Cc1ccc2[nH]c(=O)cc(/N=C(\C3CCCC3)N3CCOCC3)c2c1 [Compound 4h, (E) 4-((Cyclopentyl(morpholino)methylene)amino)-6-methylquinolin-2(1H)-one]
- IC50 [1]: 2.3 µM
- IC50 [2]: 2.3 ± 0.2 µM
- IC50 [3]: 2.6 ± 0.2 µM
- melting point: 226 °C
- viability at 4 days, 50 µM [4]: 91%
- IC50 [5]: 1.9 ± 0.2 µM
- IC50 [6]: 2.3 ± 0.2 µM

SMILES: COc1ccc2[nH]c(=O)cc(/N=C(\C3CCCC3)N3CCCCC3)c2c1 [Compound 4c, (E) 4-((Cyclopentyl(piperidin-1-yl)methylene)amino)-6-methoxyquinolin-2(1H)-one]
- IC50 [1]: 2.1 µM
- IC50 [2]: 2.2 ± 0.2 µM
- IC50 [3]: 2.3 ± 0.2 µM
- melting point: 250 °C
- viability at 4 days, 50 µM [4]: 91%
- IC50 [5]: 1.9 ± 0.2 µM
- IC50 [6]: 2.05 ± 0.2 µM

SMILES: O=c1cc(/N=C(\C2CCCC2)N2CCOCC2)c2ccccc2[nH]1 [Compound 4g, (E) 4-((Cyclopentyl(morpholino)methylene)amino)quinolin-2(1H)-one]
- Fold less potent than the reference doxorubicin (GI50) [1]: at least 6 fold
- IC50 [1]: 6.1 µM
- IC50 [2]: 6.2 ± 0.6 µM
- IC50 [3]: 6.3 ± 0.6 µM
- viability at 4 days, 50 µM [4]: 89%
- IC50 [5]: 5.9 ± 0.6 µM
- IC50 [6]: 6.1 ± 0.6 µM

SMILES: COc1cccc2c1C(=O)c1c(O)c3c(c(O)c1C2=O)C[C@@](O)(C(=O)CO)C[C@@H]3O[C@H]1C[C@H](N)[C@H](O)[C@H](C)O1 [Doxorubicin, reference compound]
- IC50 [1]: 1.1 µM
- IC50 [2]: 1 ± 0.1 µM
- IC50 [3]: 1.2 ± 0.1 µM
- IC50 [5]: 0.9 ± 0.1 µM
- IC50 [6]: 1.4 ± 0.2 µM
